Laboratory results published in patent publication US11130132B2, “Microfluidic neutrophil assays and systems for disease detection” (The General Hospital Corporation, priority 2016, dated 2021).

Tested on: neutrophils in whole blood
Assay: blood-spiking with immune-modulators: spontaneous neutrophil motility in whole blood in the microfluidic device
Type: cell-based, human
Conditions: 37° C. 30 min before loading
Protocol: Prior to the addition of a blood sample, devices were primed with IMDM containing 10% FBS and 1% Fibronectin (from human plasma, Sigma) by pipetting 50 μl into the sample loading chamber and around each device, such that a dome of liquid formed on top, and the outer edge of the device in contact with the coverslip was surrounded. The devices were placed under a vacuum for at least 10 minutes, and then removed and allowed to re-pressurize and equilibrate for at least 15 minutes to remove bubbles.
Whole blood samples to be loaded in the device were diluted 1:1 in IMDM with 20% FBS and stained with Hoechst 33342 dye at 32 μM for 15 minutes prior to loading. A small droplet of 0.5 μL of stained blood was then pipetted into the center of the device using a gel-loading tip. The blood droplet is pipetted into the central chamber and time-lapse imaging of the mazes was then used to measure neutrophil behavior over a period of 4 hours.
Cell motility was imaged at 10× magnification using a fully automated fluorescent Nikon TiE inverted wide field microscope with a biochamber heated to 37° C. with 5% CO2. Each microfluidic device included 8 imaging fields, each containing one […]. Each field was imaged every 2 minutes over the course of 4 hours to allow accurate tracking of cell motility.
Automated cell tracking was performed using ImageCV, TrackPy, and SciKit-Learn packages in Python. Files were converted to standard AVI format using Nikon Elements or ImageJ. Initial processing was performed to allow brightfield tracking and included removing the background. Cell tracking was performed automatically from brightfield images for most of the time-lapse sequences. Cells were tracked by size, velocity, and directionality. These tracks were written to individual CSV files for each imaging field. The specific variables for each track included: track number, video frame, cell diameter, x position, y position, distance, and velocity. Cell motility pattern identification and definitions are detailed in Table 2. Figures were prepared using Illustrator CS5 Version 15.0.0 (Adobe Systems).
For plasma-swapping experiments, 1 mL of whole blood was centrifuged at 200 g for 10 minutes to pellet cells. The platelet-rich plasma supernatants were then drawn from the tubes and transferred into fresh tubes. Platelets were then pelleted at 1900 g for 10 minutes and the plasma fraction drawn into fresh tubes. Cell pellets were then re-suspended in the appropriate exchanged plasma and an aliquot loaded into the device. For blood-spiking experiments, immune-modulators were added to the media at 2× the target dose prior to mixing 1:1 with whole blood. Once mixed, spiked blood samples were incubated at 37° C. for 30 min prior to loading.

[1] = whole blood spiked at 0.1 ng/mL
[2] = whole blood spiked at 1.0 ng/mL
[3] = whole blood spiked at 0.5 ng/mL
[4] = whole blood spiked at 1.8 ng/mL
[5] = whole blood spiked at 0.3 ng/mL

Row | Molecule | Oscillations (O) [1] | Pausing [1] | Spontaneously migrating cells (N) [1] | Oscillations (O) [2] | Pausing [2] | Spontaneously migrating cells (N) [2] | Oscillations (O) [3] | Pausing [3] | Spontaneously migrating cells (N) [3] | Oscillations (O) [4] | Pausing [4] | Spontaneously migrating cells (N) [4] | Spontaneously migrating cells (N) (whole blood spiked at 2.5 ng/mL) | Oscillations (O) [5] | Pausing [5] | Spontaneously migrating cells (N) [5]
1 | IL1-β: immune-modulator previously reported to be elevated in septic blood, spiked into whole blood | 1.4 ± 1.5 | 2.4 ± 2.8 | 3.8 ± 3.2 | 1.0 | 1.0 | 0.3 ± 0.1 |  |  |  |  |  |  |  |  |  | 
2 | TNF-α | 1.7 ± 3.4 | 4.8 ± 8.8 | 7.2 ± 13.9 | 0.7 ± 1.2 | 1.3 ± 0.6 | 2.7 ± 1.2 | 1.3 ± 1.2 | 15.7 ± 14.2 | 25.3 ± 26.1 |  |  |  |  |  |  | 
3 | IFN-γ: immune-modulator previously reported to be elevated in septic blood, spiked into whole blood (protein, UniProt P01579 24-161, looked up) Interferon gamma: QDPYVKEAENLKKYFNAGHSDVADNGTLFLGILKNWKEESDRKIMQSQIVSFYFKLFKNFKDDQSIQKSVETIKEDMNVKFFNSNKKKRDDFEKLTNYSVTDLNVQRKAIHELIQVMAELSPAAKTGKRKRSQMLFRG |  |  |  |  |  |  |  |  |  | 4.8 ± 6.3 | 7.0 ± 6.9 | 10.8 ± 12.4 | 0 ± 0.0 |  |  | 
4 | G-SCF: immune-modulator previously reported to be elevated in septic blood, spiked into whole blood (protein, UniProt P09919 31-207, looked up) Granulocyte …: TPLGPASSLPQSFLLKCLEQVRKIQGDGAALQEKLVSECATYKLCHPEELVLLGHSLGIPWAPLSSCPSQALQLAGCLSQLHSGLFLYQGLLQALEGISPELGPTLDTLQLDVADFATTIWQQMEELGMAPALQPTQGAMPAFASAFQRRAGGVLVASHLQSFLEVSYRVLRHLAQP |  |  |  |  |  |  | 0.3 ± 0.6 | 2.0 ± 1.7 | 2.3 ± 2.3 |  |  |  |  | 4.2 ± 9.7 | 4.7 ± 9.6 | 6.7 ± 13.6
